This is an account of results in patent US12350194B1, “Topical ocular delivery of fluids with controlled mass dosing and wireless communication” (Bausch + Lomb Ireland Limited, priority 2018, dated 2025).

Assay [1] concerns patients with primary open angle glaucoma. The experiment in a line: Trial 2: intraocular pressure by Goldmann applanation tonometry. Particulars: AcuStream vs standard eye dropper; Wilcoxon Ranked Sum test, p=0.3447. Type of assay: in vivo, human. Here is the method:
Trial 2 compared the efficacy (dose volume equivalence) of 0.005% w/v latanoprost for intraocular pressure reduction when delivered via AcuStream™ (pre-trial calibration volume=9.2 μl) versus the standard eye dropper for topical drug delivery (approximate volume=30 μl).
Patients included in Trial 2 have previously been diagnosed with primary open angle glaucoma on the basis of intraocular pressure and visual field testing, fundus examination or optical coherence tomography (OCT) data and are currently on prostaglandin analog medical therapy. Patients with corneal abnormalities that would interfere with accurate IOP measurements with applanation tonometry, use of an oral or topical ophthalmic steroids within the past 14 days from screening date, any active ocular surface or anterior segment disease, or progressive field loss during the past year were excluded from the study. Thirteen men and five women participated in the trial. […]
After performing slit lamp examinations on each patient to verify eligibility and obtaining informed consent, intraocular pressure (IOP) was measured by a sole experienced examiner who was blind to the randomized conditions. […]
Latanoprost solution was administered by a sole ophthalmologist to both eyes of each patient, based on the pre-determined randomized condition.

The next assay relates to eye of subjects. The experiment in a line: Presbyopia: pupil diameter after self-administered pilocarpine micro-dose. Type of assay: in vivo, human. How it is done:
A 10 μl micro-dose of a 1% pilocarpine solution was self-administered using an electromagnetic actuated fluid delivery device, e.g., as described above, by three subjects to their own eye. The age range of the subjects was 52 years to 68 years, and all subjects were male. The pilocarpine micro-dose was self-administered by the subjects.
Baseline, pre-dose values of pupil diameter and near visual acuity in both eyes prior to dosing was measured for all subjects, and then following the baseline measurements, the subjects were dosed in only one eye (the eye with the poorer visual acuity) with the micro-dose pilocarpine solution. Approximately 45 to 60 minutes after dosing, pupil diameter and near visual acuity were again tested. Near visual acuity was measured using a Snellen card at a distance of 40 cm. A tabulation of results is given below in Table A.

The structures appear in SMILES notation.

As for `CC(C)OC(=O)CCC/C=C\C[C@@H]1[C@@H](CC[C@@H](O)CCc2ccccc2)[C@H](O)C[C@@H]1O` [latanoprost], the “difference in IOP reduction between groups” value in assay [1] is “no statistically significant differences”.

For `CC[C@@H]1C(=O)OC[C@@H]1Cc1cncn1C` [pilocarpine], the “miotic effect in non-dosed eye” value with eye of subjects is given as “no miotic effect”.
